Read-outs that look alike come from different tables or passages of the source.
Tests used:
clinical = assay: clinical
Experimental: In this open-label pharmacokinetic/pharmacodynamic study, pharmacokinetics and effects of 400 mg oral tyramine were analysed in relation to MAO-A, CYP2D6, and OCT1 genotypes in 88 healthy volunteers. Eighty percent of the participants were unselected volunteers from Göttingen area in Germany; the remaining 20% were selected from an internal database to enrich the study sample with rare OCT1 or CYP2D6 variants. With widely accepted statistical criteria (type I error of 0.05 and type II error of 0.2), at least 10 subjects with genetically defined very low activity of OCT1 or CYP2D6 and a similar or higher number without deficiency should be sufficient to confirm a relevant 50% change in tyramine plasma AUC as a result of genetic variation. Because of the very diverse and not pharmacokinetic-based literature data on the functional effects of MAO-A polymorphisms, no power calculation could be performed with regard to MAO-A genotypes. However, a sample size of nearly a hundred individuals should be sufficient to find genotypes with a population frequency of at least 5%. All volunteers gave their written informed consent before participation in the study. The study was approved by the ethics committee of the University of Göttingen. It was registered at the German Clinical Trials Registry and the World Health Organization International Clinical Trials Registry Platform (DRKS00008915; https://www.drks.de/DRKS00008915).
Plasma and urine concentrations of tyramine and 4-HPAA were analysed by HPLC with tandem mass spectrometry using tyramine-d4 (Santa Cruz Biotechnology, Inc., Dallas, TX, USA) as internal standard. GR 49336 (5-[[(methylamino)sulfonyl]methyl]-1H-indole-3-acetic acid; Santa Cruz Biotechnology, Inc.) was used as internal standard for 4-HPAA. The analytical standards for tyramine were obtained from Fluka (Morristown, NJ, USA) and for 4-HPAA from Sigma-Aldrich (Darmstadt, Germany). The limit of detection for tyramine was 0.1 ng/ml in plasma and 10 ng/ml in urine; for 4-HPAA, it was 5 ng/ml in plasma and 0.5 µg/ml in urine. The limit of quantification for tyramine was 0.25 ng/ml in plasma and 15 ng/ml in urine; for 4-HPAA, it was 15 ng/ml in plasma and 1.5 µg/ml in urine.
200 µl of plasma were precipitated in 1.5 ml Eppendorf tubes with 400 µl acetonitrile/methanol (9:1, v:v), including the internal standards. After 10 min on ice, tubes were centrifuged for 30 min at 13,000 rpm, and 300 µl of the supernatant were transferred to a microtiter plate. The supernatant was evaporated using nitrogen and re-dissolved in 0.1% formic acid. 10 µl were injected into the HPLC system. Chromatography was performed using a Shimadzu Nexera system with an API 4000 detector. Separation for analysis of tyramine and methyltyramine was performed at 40°C on a Brownlee SPP RP-Amide 100 x 4.6 mm, 2.7 µm particle size, column using water with 0.1% (v/v) formic acid, 2.57% acetonitrile, and 0.43% methanol as eluent. Detection (positive mode) of tyramine was based on the masses 139.1/121.1 and for tyramine-d4 on 142.0/125.0. Calibration range was 0.5 to 200 µg/l with coefficients of variation of 4.6%, 2.8%, and 2.6% at 2, 20, and 150 µg/l, respectively. Analysis of 4-HPAA was performed on the same system, using 0.1% formic acid, 17.14% acetonitrile, and 2.86% methanol as eluent and detection in the negative mode based on the masses 151.0/107.2 for 4-HPAA and 281.2/142.1 for the internal standard. Calibration range was between 0.03 and 20 mg/l and coefficients of variation were 4.7%, 4.2%, and 3.7% at 1, 5, and 15 mg/l.
Pharmacokinetic parameters were calculated by non-compartmental analysis using Phoenix 64 WinNonlin version 6 (Certara USA, Inc., Princeton NJ, USA). AUCinf of tyramine was calculated from time of dosing using the linear/log trapezoidal rule, and extrapolated to inﬁnity based on the last predicted concentration and using the terminal elimination rate constant (lambda z).

healthy volunteers [1] = conditions: in vivo
Experimental: (§1) To avoid interference by dietary tyramine, food and drink (including alcohol) consumption was prohibited from the evening before the study day until the last blood and urine sampling, except for water at any time and bread with butter 3 h before and 3 h after tyramine administration. A medical examination and electrocardiogram measurement were conducted 3 h prior to tyramine administration. Blood samples were drawn 3 h before and at the following times after tyramine intake: 15, 30, and 45 min as well as 1, 1.5, 2, 2.5, 3, 4, and 6 h. Urine samples were taken from 3 h to 10 min before tyramine administration as well as from 0 to 3 h and from 3 to 6 h after. Blood samples were centrifuged (10 min, 4°C, 4,000 rpm) and plasma and urine samples were stored at −20°C until analysis. Blood pressure and heart rate were measured 3 h, 35 min, and 10 min before tyramine administration, and subsequently in 15 min intervals until 6 h after. In a subgroup of eight participants, blood pressure was continuously monitored based on an analysis of pulse pressure curves using the SOMNOtouch™ NIPB non-invase system (SOMNOmedics GmbH, Randersacker, Germany). An orthostatic blood pressure test was performed 10 min before as well as 30 min and 1.5 h after tyramine intake. Pupillometry was performed 35 min prior to, and 1, 2, and 6 h after tyramine administration. Participants were asked to report on symptoms possibly related to tyramine (headache, fatigue, sleepiness, visual or hearing impairments, restlessness, nausea, dizziness, dry mouth, tremor, sensation of cold, and heart palpitation) using visual analogue scales 3 h before and 1, 3, and 6 h after tyramine intake.
(§2) The primary endpoint was the AUC of tyramine in plasma. Secondary endpoints were the other pharmacokinetic parameters of tyramine and its metabolite 4-HPAA, as well as heart rate, blood pressure, pupil size effects, and possible adverse events (headache, fatigue, visual or hearing impairments, restlessness, nausea, dizziness, dry mouth, tremor, hypothermia, heart palpitations). In addition, the cumulative amounts of tyramine and 4-HPAA excreted in urine were measured over time periods of 3 h before (baseline) and 6 h after application.

healthy volunteers [2] = assay: Blood pressure and heart rate effects after 400 mg oral tyramine; format: in vivo, human
Excerpt: Purity was confirmed by HPLC.

[3] = tested on: organic cation transporter 1 (OCT1, or SLC22A1); set-up: method as in Breidert et al., 1998; conditions: ref Breidert et al., 1998; cited from earlier work
[4] = set-up: method as in earlier work; conditions: fasting state; upwards; ref VanDenBerg et al., 2003; Di Stefano et al., 2013; Gillman, 2018; cited from earlier work
healthy volunteers [5] = assay: Adverse events, adverse symptoms (visual analogue scales) and pupillometry after 400 mg oral tyramine
Experimental: as §1, §2

[6] = human, in vivo, po, 400 mg, t max
[7] = human, in vivo, po, 400 mg, tmax, range

Structure (SMILES): O=C(O)Cc1ccc(O)cc1 [4-HPAA, 4-hydroxyphenylacetic acid]
- Baseline recovery in the urine cumulated for 3 h prior to tyramine administration (clinical; human, in vivo): 2.65 (0.67–9.05) mg
- concentration at -3 h (clinical; human, in vivo): 70 ng/mL
- participants with baseline plasma concentration below the limit of quantification (clinical; human, in vivo, -3 h): 84%
- dose recovered in urine in form of 4-HPAA (clinical; human, in vivo, po): 76.8%
- CL renal (clinical; human, in vivo, po, 400 mg): 240 mL/min
- Cmax (clinical; human, in vivo, po, 400 mg): 9040 ng/mL
- half-life (clinical; human, in vivo, po, 400 mg): 1.22 h
- variation of 4-HPAA systemic exposure (plasma AUC) (clinical; human, in vivo, po, 400 mg): up to 3 fold
- AUC(0-inf) (clinical; human, in vivo, po, 400 mg, AUC inf): 21600 ng·h/mL
- Tmax (clinical; [6]): 1.47 h
- Tmax (clinical; [7]): 0.483 to 2.5 h
- correlation of systemic concentration with dizziness (healthy volunteers [1]): positively
- correlation of systemic concentration with dry mouth (healthy volunteers [1]): weakly
- correlation of systemic concentration with headache (healthy volunteers [1]): positively
- correlation of systemic concentration with heart palpitation (healthy volunteers [1]): positively

Structure (SMILES): CNCCc1ccc(O)cc1 [N-methyltyramine]
- Plasma and urine concentrations (clinical; 400 mg oral tyramine, below the limit of detection): < 1 ng/mL

Structure (SMILES): NCCc1ccc(O)cc1 [Tyramine, tyramine]
- AUC(0-inf) (clinical; female, human, in vivo, po, 400 mg): 0.19 µM·h
- AUC(0-inf) (clinical; female, human, in vivo, po, 400 mg, Mean plasma AUCinf): 0.528 µM·h
- Baseline recovery in the urine cumulated for 3 h prior to tyramine administration (clinical; human, in vivo): 0.055 (0.007–0.222) mg
- effect of MAO-A genotypes on tyramine pharmacokinetics or its metabolism to 4-HPAA (clinical; human, in vivo): no significant effects
- effect of polymorphisms in OCT1 and CYP2D6 on tyramine pharmacokinetics or pharmacodynamics (clinical; human, in vivo): did not significantly affect
- Baseline plasma concentration (clinical; human, in vivo, -3 h): 0.39 (0.25 & 0.53) ng/ml
- participants with baseline plasma concentration below the limit of quantification (clinical; human, in vivo, -3 h): 98%
- bioavailability (clinical; human, in vivo, po): < 1%
- AUC(0-inf) (clinical; human, in vivo, po, 400 mg): 62.3 ng·h/mL
- CL renal (clinical; human, in vivo, po, 400 mg): 260 mL/min
- Cmax (clinical; human, in vivo, po, 400 mg): 87 ng/mL
- half-life (clinical; human, in vivo, po, 400 mg): 0.917 h
- Tmax (clinical; [6]): 0.767 h
- Tmax (clinical; [7]): 0.217 to 2 h
- correlation of rise in systolic blood pressure with systemic tyramine concentration (healthy volunteers [2]; 400 mg oral tyramine): correlated strongly
- participants with blood pressure peaks by >40 mmHg above baseline (healthy volunteers [2]; 400 mg oral tyramine): less than 10%
- participants with increases in systolic blood pressure less than 40 mmHg (healthy volunteers [2]; 400 mg oral tyramine): 90%
- tyramine concentrations at which blood pressure peaks by >40 mmHg above baseline were observed (healthy volunteers [2]; 400 mg oral tyramine): > 60 µg/L
- volunteers with systolic blood pressure increased by more than 10 mmHg (healthy volunteers [2]; 400 mg oral tyramine): 71%
- tyramine plasma concentration at which diastolic blood pressure increased (healthy volunteers [2]; concentration-effect analyses): higher than 100 µg/l
- tyramine plasma concentration at which systolic blood pressure rises (healthy volunteers [2]; concentration-effect analyses, and above): ≥ 60 µg/L
- time of blood pressure reaction after tyramine administration (healthy volunteers [2]; one participant, much delayed): 90 min
- OCT1 substrate affinity [3]: substrate with nanomolar affinity
- oral tyramine dose at which the pressor response occurs [4]: ≥ 200 mg
- serious adverse events (healthy volunteers [5]; 400 mg oral tyramine, 88 healthy volunteers): no serious adverse events
- pupil size and pupil reaction to light before and after tyramine administration (healthy volunteers [5]; repeated pupillometric analyses): no difference
- correlation of systemic concentration with heart palpitation (healthy volunteers [5]; visual analogue scales, two-tailed, p < 0.001): Positive correlations
- correlation of systemic concentration with inner restlessness (healthy volunteers [5]; visual analogue scales, two-tailed, p = 0.02): Positive correlations
